According to patent US8852953B2, “Immunodetection and quantification of pyrazolopyrimidine sedatives” (Randox Laboratories Ltd., priority 2009, dated 2014):
Converted amounts (≈) assume the structure as drawn.

Columns and labels:
[1] = tested on: antiserum raised to Immunogen A (Hapten-A-BTG); assay: Competitive ELISA with antiserum raised to Immunogen A and Conjugate A (Hapten-A-HRP) as detection reagent; type: binding, sheep
Experimental: Aqueous solutions of the immunogens prepared in Examples 6 and 12 were formulated with Freund's Complete Adjuvant (FCA) to form emulsions of Immunogen A and Immunogen [[B]]C in 50% (v/v) FCA. Individual sheep were immunised with the emulsions of Immunogen A and Immunogen C (primary immunisations), 0.25 ml being subcutaneously injected in the flank of each animal. Subsequent boosts of emulsified immunogens in 50% (v/v) Freund's Incomplete Adjuvant (FIA) were at monthly intervals for 1 year. Blood sampling took place 7-14 days after each boost. Each sample was processed to produce antisera which were further purified by caprylic acid and ammonium sulfate precipitated to yield an immunoglobulin G (IgG) fraction. The IgG fraction was evaluated by competitive ELISA microtitre plate assay, as described in Example 15.
The wells of an enhanced binding 96 well polystyrene microtitre plate were coated with the IgG fraction of the antiserum raised to Immunogen A Hapten A-BTG diluted in 10 mM Tris, pH8.5 (125 μl/well). The appropriate antibody coating dilution was determined using standard ELISA chequerboard techniques. The plate was incubated for 2 hours at 37° C., washed 4 times with Tris buffered saline containing Tween 20 (TBST) and tapped dry. […] 75 μl of Conjugate A (Hapten A-HRP), diluted in Tris buffer containing EDTA, D-mannitol, sucrose, thimerosal and BSA, was added to each of the wells. The appropriate dilution of conjugate was also determined using standard ELISA chequerboard techniques. The plate was incubated at 25° C. for 1 hour. The excess unbound conjugate was removed by washing 6 times over a 10 minute period with TBST. 125 μl of tetramethylbenzedine (TMB) substrate solution was added to each well of the plate and incubated for 20 minutes in the dark at room temperature. The reaction was stopped by the addition of 125 μl of 0.2M H2SO4 to each well. The absorbance was then measured at 450 nm using a microtitre plate reader.

[2] = tested on: antiserum raised to Immunogen C (Hapten-C-BTG); assay: Competitive ELISA with antiserum raised to Immunogen C and Conjugate C (Hapten-C-HRP) as detection reagent; type: binding, sheep; conditions: for % CR (percentage cross-reactivity based on specificity to Zaleplon) / IC50 (standard concentration which produces 50% B/B0): antiserum to Immunogen C, Conjugate C
[3] = antiserum to Immunogen A, Conjugate A
[4] = standard concentration 0.156 ng/ml
[5] = standard concentration 0.313 ng/ml
[6] = standard concentration 0.625 ng/ml
[7] = standard concentration 1.250 ng/ml
[8] = standard concentration 2.500 ng/ml
[9] = standard concentration 5.000 ng/ml
[10] = standard concentration 10.000 ng/ml
[11] = standard concentration 0.025 ng/ml
[12] = standard concentration 0.050 ng/ml
[13] = standard concentration 0.100 ng/ml
[14] = standard concentration 0.200 ng/ml
[15] = standard concentration 0.400 ng/ml
[16] = standard concentration 0.800 ng/ml
[17] = standard concentration 1.600 ng/ml

Structure (SMILES)	% CR (percentage cross-reactivity based on specificity to Zaleplon) [1, 3] [%]	% CR (percentage cross-reactivity based on specificity to Zaleplon) [2] [%]	IC50 (standard concentration which produces 50% B/B0) [2] [ng/mL]	% B/B0 [2, 4] [%]	A450 [2, 4]	% B/B0 [2, 5] [%]	A450 [2, 5]	% B/B0 [2, 6] [%]	A450 [2, 6]	% B/B0 [2, 7] [%]	A450 [2, 7]	% B/B0 [2, 8] [%]	A450 [2, 8]	% B/B0 [2, 9] [%]	A450 [2, 9]	% B/B0 [2, 10] [%]	A450 [2, 10]	also measured
CC(=O)N(C)c1cccc(-c2ccnc3c(C(=O)c4cccs4)cnn23)c1 [Indiplon, indiplon]	<0.63	22	1.967 (≈ 5.23 nM)	84	1.831	77	1.664	67	1.455	57	1.234	46	1.006	36	0.778	27	0.579	IC50 (standard concentration which produces 50% B/B0) [1, 3]: >10 ng/mL; % B/B0 [1, 4]: 96%; A450 [1, 4]: 2.063; % B/B0 [1, 5]: 94%; A450 [1, 5]: 2.019; % B/B0 [1, 6]: 93%; A450 [1, 6]: 1.982; % B/B0 [1, 7]: 99%; A450 [1, 7]: 2.112; % B/B0 [1, 8]: 88%; A450 [1, 8]: 1.877; % B/B0 [1, 9]: 91%; A450 [1, 9]: 1.940; % B/B0 [1, 10]: 90%; A450 [1, 10]: 1.931
CCN(C(C)=O)c1cccc(-c2ccnc3c(C#N)cnn23)c1 [Zaleplon, zaleplon]	100	100	0.432 (≈ 1.41 nM)	65	1.487	54	1.236	45	1.021	36	0.825	27	0.610	20	0.457	15	0.337	IC50 of zaleplon-specific antibody ([1]; as stated in the description): 0.063 ng/mL; % B/B0 [1, 11]: 72%; A450 [1, 11]: 1.542; % B/B0 [1, 12]: 55%; A450 [1, 12]: 1.180; % B/B0 [1, 13]: 40%; A450 [1, 13]: 0.860; % B/B0 [1, 14]: 28%; A450 [1, 14]: 0.602; % B/B0 [1, 15]: 19%; A450 [1, 15]: 0.406; % B/B0 [1, 16]: 13%; A450 [1, 16]: 0.286; % B/B0 [1, 17]: 10%; A450 [1, 17]: 0.211
